Assay [1] concerns fosfomycin-resistant E. coli subpopulation (ATCC 25922). The experiment in a line: Susceptibility (agar MIC, RIC) of the inherently fosfomycin-resistant subpopulation. Format: cell-based, Escherichia coli. The note with it: resistant subpopulation within the standard starting inoculum 5×10^5 CFU/mL. The method, then:
RIC as used herein refers to the resistant inhibitory concentration and identifies the concentrations of antimicrobial required to inhibit the less susceptible or ‘resistant’ mutant subpopulation of organisms. RIC is a new term coined by the inventors of the present invention and is utilized throughout the specification herewith.
(§1) Another reason may be the volume of the micro-titer well (100-200 μL) used in the test method is small, containing 50,000-100,000 CFU. The inherently fosfomycin-resistant subpopulation has a frequency of 1 in 350,000 CFU. Thus, for fosfomycin, the standard susceptibility test method is an insensitive measure of the drug concentration required to inhibit a clinically relevant bacterial inoculum.
(§2) Note the relatively stronger relationship between the change in bacterial density and AUC0-24:RIC ratio and % T>RIC compared with that for Cmax:RIC ratio, where RIC is the concentration needed to inhibit the fosfomycin-resistant subpopulation.

In assay [2] the test system is Escherichia coli (ATCC 25922). The experiment in a line: Susceptibility test (MIC) of fosfomycin against wild-type Escherichia coli. Format: cell-based. The method, then:
MIC as used herein refers to the minimum inhibitory concentration (MIC) of an antimicrobial that will inhibit the visible growth of a microorganism after overnight incubation. MICs are important in diagnostic laboratories to confirm resistance of microorganisms to an antimicrobial agent and also to monitor the activity of new antimicrobial agents. A MIC is generally regarded as the most basic laboratory measurement of the activity of an antimicrobial agent against an organism. Clinically, the MICs are used not only to determine the amount of antibiotic that a patient will receive but also the type of antibiotic used, which in turn lowers the opportunity for microbial resistance to specific antimicrobial agents. Applying MIC testing to a number of bacterial strains in the same species provides an estimate of the concentration that inhibits 50% (MIC50) and 90% (MIC90) of bacterial isolates and can indicate shifts in susceptibility of bacterial populations to antibiotics.
(§3) A dose-fractionation study was conducted utilizing a wild-type strain of Escherichia coli (ATCC 25922; fosfomycin MIC=0.5 mg/L agar; 1 mg/L broth microtiter) in a one-compartment in vitro infection model where the human drug concentration-time profile was simulated over a 24 hour study period.
as §1

Assay [3] has as its system Escherichia coli (ATCC 25922). The experiment in a line: Dose-fractionation study in a one-compartment in vitro infection model. Format: cell-based. The method, then: as §3
In such a circumstance, one way to overcome the poor sensitivity of the susceptibility test method is to increase the inoculum size and/or the volume of test system. The one-compartment in vitro infection model is a much more sensitive tool to measure the drug concentration required to inhibit a clinically relevant bacterial inoculum owing to its ability accommodate a higher inoculum and the larger volume (125 mL) of the test system. For this reason, dose-fractionation studies were conducted using a one-compartment in vitro infection model to identify the PK-PD measure most closely associated with efficacy.
as §2

Assay [4] concerns Escherichia coli ATCC 25922. The experiment in a line: Neutropenic murine-thigh infection model. Format: in vivo. The note with it: neutropenic mice. The method, then:
In vivo animal studies utilizing the neutropenic murine-thigh model were conducted to confirm key results obtained from the in vitro PK-PD infection models. Initial goals of the studies were to confirm the presence of a clinically-relevant fosfomycin-resistant subpopulation in vivo and to confirm % T>RIC was the PK-PD measure that predicted response.
In brief, six-week-old specific-pathogen-free female CD1 (ICR/Swiss) mice were rendered neutropenic by two intra-peritoneal injections of cyclophosphamide, 150 mg/kg of body weight 4 days prior to the study and 100 mg/kg 1 day prior to the study. The challenge isolate was Escherichia coli ATCC 25922 (fosfomycin MIC, 1 mg/L), which was the same strain used in the aforementioned in vitro PK-PD infection model studies. […]
To determine which PK-PD measure best described efficacy, the number of bacteria in the thigh at the end of 24 hours of therapy (or earlier for some of the lowest doses) was correlated with 1) the Cmax:MIC ratio, 2) the 24-hour AUC0-24:MIC ratio, 3) the percentage of the dosing interval during that serum concentrations exceed the MIC, and 4) the percentage of the dosing interval during that serum concentrations exceed the RIC for each of the dosage regimens studied. […] The correlation between efficacy and each of the […] PK-PD indices was determined by nonlinear least-squares multivariate regression. […]

In brackets after ≈: the same amount, converted by molar mass. Where two headings read alike, the source gives them in different places.

The source of these data is patent US10086006B2, “Method for improving drug treatments in mammals” (priority 2013, dated 2018).

Consider `C[C@@H]1O[C@@H]1P(=O)(O)O` [fosfomycin], for which the MIC in assay [1] (Escherichia coli, ATCC25922, agar) was 32 to 64 µg/mL; in assay [2] (ATCC25922, E. coli ATCC 25922 challenge isolate, method not stated, read-out: fosfomycin MIC of the challenge isolate) it was 1 µg/mL; in assay [2] (ATCC25922, agar, wild-type E. coli ATCC 25922, read-out: fosfomycin MIC (agar)), 0.5 µg/mL (≈ 3.62 µM); in assay [2] (ATCC25922, broth microtiter, wild-type E. coli ATCC 25922, read-out: fosfomycin MIC (broth microtiter)), 1 µg/mL (≈ 7.24 µM). For the same molecule, the “agar MIC of the fosfomycin-resistant subpopulation” value in assay [1] (agar) was 32 µg/mL. Besides, in assay [3] (at maximally effective AUC0-24:RIC ratios and free-drug % T>RIC, 24 hour), the “relation of bacterial killing to dosing interval” value is “as the duration of the dosing interval decreases, the amount of bacterial killing increases”. Besides, the “range of the change in bacterial density at 24 hours between regimens” value in assay [3] (regimens identical in total daily dose and % T>MIC (100%), differing in dosing interval, simulated human concentration-time profile) was 8 log10. Further, in assay [4] (dose range 1.56 to 400 mg/kg every 3 hours), the “density of the drug-resistant subpopulation in the thighs after 24 hours of therapy” value is “eliminated at the highest dose-level”. In addition, in assay [4] (dosing intervals of 3, 6, 12, and 24 hours), the “PK-PD measure correlated with change in log10 CFU in the thighs after 24 hours of therapy” value is reported as “% T>RIC was well-correlated with change in bacterial density”.

Usually MIC stands for the lowest concentration found to suppress growth.
